Measurements published in patent publication US20130053310A1 (NOVO NORDISK A/S, priority 2010, published 2013).
“Also recorded” adds a separate entry of the source. Peptide text beside a SMILES is read from it.

Key:
glucagon receptor = target: T1, glucagon receptor (Homo sapiens, UniProt P47871); test: Assay (I) Glucagon activity: cAMP biosensor (ACTOne) FLIPR assay in HEK-293 cells with cloned glucagon receptor; format: cell-based
T1 construct: expressed in transfected cells
Description: The cells (14000 per well) were incubated (37° C., 5% CO2) overnight in 384-well plates. Next day the cells were loaded with a calcium responsive dye that only distributed into the cytoplasm. Probenecid, an inhibitor of the organic anion transporter, was added to prevent the dye from leaving the cell. A PDE inhibitor was added to prevent formatted cAMP from being degraded. […] End point data were collected after 6 minutes. An increase in intracellular cAMP was proportional to an increased in calcium concentrations in the cytoplasm. When calcium was bound the dry a fluorescence signal was generated. EC50-values were calculated in Prism5.

[1] = Assay (II) ThT fibrillation assay for physical stability; format: physicochemical; details: shaking 960 rpm; for Assay (II) (pH 4.0) Lag time (hours): ThT fibrillation assay, pH 4.0, 250 μM, 10 mM glycylglycine, 45 hours at 37° C.
Text: This has traditionally been measured by visual inspection of the sample. However, that kind of measurement is very subjective and depending on the observer. Therefore, the application of a small molecule indicator probe is much more advantageous.
Here, F is the ThT fluorescence at the time t. The constant t0 is the time needed to reach 50% of maximum fluorescence.
Few of those intermediates nucleate to form a template onto which further intermediates may assembly and the fibrillation proceeds. The lag-time corresponds to the interval in which the critical mass of nucleus is built up and the apparent rate constant is the rate with which the fibril itself is formed.
Samples were prepared freshly before each assay. […] The pH of the sample was adjusted to the desired value using appropriate amounts of concentrated NaOH and HCl. Thioflavin T was added to the samples from a stock solution in H2O to a final concentration of 1 μM.
The plate was sealed with Scotch Pad (Qiagen).
Each run was initiated by incubating the plate at the assay temperature for 10 min. The plate was measured every 20 minutes for a desired period of time. Between each measurement, the plate was shaken and heated as described.
The supernatant was filtered through a 0.22 μm filter and an aliquot was transferred to a HPLC vial.
The measurement points were saved in Microsoft Excel format for further processing and curve drawing and fitting was performed using GraphPad Prism.
The data set may be fitted to Eq. (1).

T1 sequence (P47871 26-477): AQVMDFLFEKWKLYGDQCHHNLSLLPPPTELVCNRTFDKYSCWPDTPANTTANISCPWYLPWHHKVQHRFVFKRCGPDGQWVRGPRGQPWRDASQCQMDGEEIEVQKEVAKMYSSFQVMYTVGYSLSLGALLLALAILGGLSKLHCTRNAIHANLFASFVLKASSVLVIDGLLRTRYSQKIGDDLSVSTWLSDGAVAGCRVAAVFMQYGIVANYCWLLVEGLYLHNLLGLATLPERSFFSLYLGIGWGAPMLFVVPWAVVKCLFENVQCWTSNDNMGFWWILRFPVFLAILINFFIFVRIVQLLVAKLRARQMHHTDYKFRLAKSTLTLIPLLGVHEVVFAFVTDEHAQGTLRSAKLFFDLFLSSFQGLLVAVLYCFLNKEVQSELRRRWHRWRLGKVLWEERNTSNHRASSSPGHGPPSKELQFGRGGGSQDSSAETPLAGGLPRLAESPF

SMILES	EC50 (glucagon receptor) [nM]	ThT emission / fibrillation upon physical stress ([1]; 250 μM in 1 μM ThT, 10 mM glycylglycine buffer pH 4.0, 45 hours at 37° C.)	Assay (II) (pH 4.0) Lag time (hours) [1] [hours]
CC(C)C[C@H](NC(=O)[C@H](Cc1ccc(O)cc1)NC(=O)[C@H](CCCCN)NC(=O)[C@H](CO)NC(=O)[C@H](Cc1ccc(O)cc1)NC(=O)[C@H](CC(=O)O)NC(=O)[C@H](CO)NC(=O)[C@@H](NC(=O)[C@H](Cc1ccccc1)NC(=O)[C@@H](NC(=O)CNC(=O)[C@H](CCC(N)=O)NC(=O)[C@H](CO)NC(=O)[C@@H](N)Cc1c[nH]cn1)[C@@H](C)O)[C@@H](C)O)C(=O)N[C@@H](CC(=O)O)C(=O)N[C@@H](CO)C(=O)N[C@@H](CCCNC(=N)N)C(=O)N[C@@H](CCCNC(=N)N)C(=O)N[C@@H](C)C(=O)N[C@@H](CCC(N)=O)C(=O)N[C@@H](CCC(=O)O)C(=O)N[C@@H](Cc1ccccc1)C(=O)N[C@H](C(=O)N[C@@H](CCC(N)=O)C(=O)N[C@@H](CCCNC(=N)N)C(=O)N[C@@H](CC(C)C)C(=O)N[C@@H](CC(C)C)C(=O)N[C@@H](CC(N)=O)C(=O)N[C@H](C(=O)O)[C@@H](C)O)C(C)C [Example 1, [Glu^21, Arg^25, Leu^27]Glucagon]	0.017	does not fibrillate; also recorded: no ThT emission occurred	
CC(C)C[C@H](NC(=O)[C@H](Cc1ccc(O)cc1)NC(=O)[C@H](CCCCN)NC(=O)[C@H](CO)NC(=O)[C@H](Cc1ccc(O)cc1)NC(=O)[C@H](CC(=O)O)NC(=O)[C@H](CO)NC(=O)[C@@H](NC(=O)[C@H](Cc1ccccc1)NC(=O)[C@@H](NC(=O)CNC(=O)[C@H](CCC(N)=O)NC(=O)[C@H](CO)NC(=O)[C@@H](N)Cc1c[nH]cn1)[C@@H](C)O)[C@@H](C)O)C(=O)N[C@@H](CC(=O)O)C(=O)N[C@@H](CO)C(=O)N[C@@H](CCCNC(=N)N)C(=O)N[C@@H](CCCNC(=N)N)C(=O)N[C@@H](C)C(=O)N[C@@H](CCC(N)=O)C(=O)N[C@@H](CC(=O)O)C(=O)N[C@@H](Cc1ccccc1)C(=O)N[C@H](C(=O)N[C@@H](CCC(N)=O)C(=O)N[C@@H](Cc1ccc(OP(=O)(O)O)cc1)C(=O)N[C@@H](CC(C)C)C(=O)N[C@@H](CC(C)C)C(=O)N[C@@H](CC(N)=O)C(=O)N[C@H](C(=O)O)[C@@H](C)O)C(C)C [Example 2, [(O-phosphono)Tyr^25,Leu^27]Glucagon]	0.017		
CC(C)C[C@H](NC(=O)[C@H](Cc1ccc(O)cc1)NC(=O)[C@H](CCCCN)NC(=O)[C@H](CO)NC(=O)[C@H](Cc1ccc(O)cc1)NC(=O)[C@H](CC(=O)O)NC(=O)[C@H](CO)NC(=O)[C@@H](NC(=O)[C@H](Cc1ccccc1)NC(=O)[C@@H](NC(=O)CNC(=O)[C@H](CCC(N)=O)NC(=O)[C@H](CO)NC(=O)[C@@H](N)Cc1c[nH]cn1)[C@@H](C)O)[C@@H](C)O)C(=O)N[C@@H](CC(=O)O)C(=O)N[C@@H](CO)C(=O)N[C@@H](CCCNC(=N)N)C(=O)N[C@@H](CCCNC(=N)N)C(=O)N[C@@H](C)C(=O)N[C@@H](CCC(N)=O)C(=O)N[C@@H](CC(=O)O)C(=O)N[C@@H](Cc1ccccc1)C(=O)N[C@H](C(=O)N[C@@H](CCC(N)=O)C(=O)N[C@@H](CCCNC(=N)N)C(=O)N[C@@H](CC(C)C)C(=O)N[C@@H](CC(C)C)C(=O)N[C@@H](CC(N)=O)C(=O)N[C@H](C(=O)O)[C@@H](C)O)C(C)C [Example 5, [Arg^25, Leu^27]-Glucagon]	0.057		> 45
CC(C)C[C@H](NC(=O)[C@H](Cc1ccc(O)cc1)NC(=O)[C@H](CCCCN)NC(=O)[C@H](CO)NC(=O)[C@H](Cc1ccc(O)cc1)NC(=O)[C@H](CC(=O)O)NC(=O)[C@H](CO)NC(=O)[C@@H](NC(=O)[C@H](Cc1ccccc1)NC(=O)[C@@H](NC(=O)CNC(=O)[C@H](CCC(N)=O)NC(=O)[C@H](CO)NC(=O)[C@@H](N)Cc1c[nH]cn1)[C@@H](C)O)[C@@H](C)O)C(=O)N[C@@H](CC(=O)O)C(=O)N[C@@H](CO)C(=O)N[C@@H](CCCNC(=N)N)C(=O)N[C@@H](CCCNC(=N)N)C(=O)N[C@@H](C)C(=O)N[C@@H](CCC(N)=O)C(=O)N[C@@H](CCC(=O)O)C(=O)N[C@@H](Cc1ccccc1)C(=O)N[C@H](C(=O)N[C@@H](CCC(N)=O)C(=O)N[C@@H](CCCNC(=N)N)C(=O)N[C@@H](CC(C)C)C(=O)N[C@@H](CC(C)C)C(=O)N[C@@H](CO)C(=O)N[C@H](C(=O)O)[C@@H](C)O)C(C)C [Example 6, [Glu^21, Arg^25, Leu^27, Ser^28]-Glucagon]	0.026		> 45
CC(C)C[C@H](NC(=O)[C@H](Cc1ccc(O)cc1)NC(=O)[C@H](CCCCN)NC(=O)[C@H](CO)NC(=O)[C@H](Cc1ccc(O)cc1)NC(=O)[C@H](CC(=O)O)NC(=O)[C@H](CO)NC(=O)[C@@H](NC(=O)[C@H](Cc1ccccc1)NC(=O)[C@@H](NC(=O)CNC(=O)[C@H](CCC(N)=O)NC(=O)[C@H](CO)NC(=O)[C@@H](N)Cc1c[nH]cn1)[C@@H](C)O)[C@@H](C)O)C(=O)N[C@@H](CC(=O)O)C(=O)N[C@@H](CO)C(=O)N[C@@H](CCCNC(=N)N)C(=O)N[C@@H](CCCNC(=N)N)C(=O)N[C@@H](C)C(=O)N[C@@H](CCC(N)=O)C(=O)N[C@@H](CC(=O)O)C(=O)N[C@@H](Cc1ccccc1)C(=O)N[C@H](C(=O)N[C@@H](CCC(N)=O)C(=O)N[C@@H](Cc1c[nH]cn1)C(=O)N[C@@H](CC(C)C)C(=O)N[C@@H](CC(C)C)C(=O)N[C@@H](CC(N)=O)C(=O)N[C@H](C(=O)O)[C@@H](C)O)C(C)C [Example 7, [His^25, Leu^27]-Glucagon]	0.019		> 45
CC(C)C[C@H](NC(=O)[C@H](Cc1ccc(O)cc1)NC(=O)[C@H](CCCCN)NC(=O)[C@H](CO)NC(=O)[C@H](Cc1ccc(O)cc1)NC(=O)[C@H](CC(=O)O)NC(=O)[C@H](CO)NC(=O)[C@@H](NC(=O)[C@H](Cc1ccccc1)NC(=O)[C@@H](NC(=O)CNC(=O)[C@H](CCC(N)=O)NC(=O)[C@H](CO)NC(=O)[C@@H](N)Cc1c[nH]cn1)[C@@H](C)O)[C@@H](C)O)C(=O)N[C@@H](CC(=O)O)C(=O)N[C@@H](CO)C(=O)N[C@@H](CCCNC(=N)N)C(=O)N[C@@H](CCCNC(=N)N)C(=O)N[C@@H](C)C(=O)N[C@@H](CCC(N)=O)C(=O)N[C@@H](CC(=O)O)C(=O)N[C@@H](Cc1ccccc1)C(=O)N[C@H](C(=O)N[C@@H](CCC(N)=O)C(=O)N[C@@H](CCCCN)C(=O)N[C@@H](CC(C)C)C(=O)N[C@@H](CC(C)C)C(=O)N[C@@H](CC(N)=O)C(=O)N[C@H](C(=O)O)[C@@H](C)O)C(C)C [Example 8, [Lys^25, Leu^27]-Glucagon]	0.1		> 45
CC(C)C[C@H](NC(=O)[C@H](Cc1ccc(O)cc1)NC(=O)[C@H](CCCCN)NC(=O)[C@H](CO)NC(=O)[C@H](Cc1ccc(O)cc1)NC(=O)[C@H](CC(=O)O)NC(=O)[C@H](CO)NC(=O)[C@@H](NC(=O)[C@H](Cc1ccccc1)NC(=O)[C@@H](NC(=O)CNC(=O)[C@H](CCC(N)=O)NC(=O)[C@H](CO)NC(=O)[C@@H](N)Cc1c[nH]cn1)[C@@H](C)O)[C@@H](C)O)C(=O)N[C@@H](CC(=O)O)C(=O)N[C@@H](CO)C(=O)N[C@@H](CCCNC(=N)N)C(=O)N[C@@H](CCCNC(=N)N)C(=O)N[C@@H](C)C(=O)N[C@@H](CCC(N)=O)C(=O)N[C@@H](CCC(=O)O)C(=O)N[C@@H](Cc1ccccc1)C(=O)N[C@H](C(=O)N[C@@H](CCC(N)=O)C(=O)N[C@@H](CCCCN)C(=O)N[C@@H](CC(C)C)C(=O)N[C@@H](CC(C)C)C(=O)N[C@@H](CC(N)=O)C(=O)N[C@H](C(=O)O)[C@@H](C)O)C(C)C [Example 9, [Glu^21, Lys^25, Leu^27]-Glucagon]	0.043		> 45
CC(C)C[C@H](NC(=O)[C@H](Cc1ccc(O)cc1)NC(=O)[C@H](CCCCN)NC(=O)[C@H](CO)NC(=O)[C@H](Cc1ccc(O)cc1)NC(=O)[C@H](CC(=O)O)NC(=O)[C@H](CO)NC(=O)[C@@H](NC(=O)[C@H](Cc1ccccc1)NC(=O)[C@@H](NC(=O)CNC(=O)[C@H](CCC(N)=O)NC(=O)[C@H](CO)NC(=O)[C@@H](N)Cc1c[nH]cn1)[C@@H](C)O)[C@@H](C)O)C(=O)N[C@@H](CCC(=O)O)C(=O)N[C@@H](CO)C(=O)N[C@@H](CCCNC(=N)N)C(=O)N[C@@H](CCCNC(=N)N)C(=O)N[C@@H](C)C(=O)N[C@@H](CCC(N)=O)C(=O)N[C@@H](CCC(=O)O)C(=O)N[C@@H](Cc1ccccc1)C(=O)N[C@H](C(=O)N[C@@H](CCC(N)=O)C(=O)N[C@@H](CCCNC(=N)N)C(=O)N[C@@H](CC(C)C)C(=O)N[C@@H](CC(C)C)C(=O)N[C@@H](CC(N)=O)C(=O)N[C@H](C(=O)O)[C@@H](C)O)C(C)C [Example 10, [Glu^15, Glu^21, Arg^25, Leu^27]-Glucagon] (H-HSQGTFTSDYSKYLESRRAQEFVQRLLNT-OH)	0.266		> 45
